Reference: ChEMBL document CHEMBL1132550, “Modeling of amino-terminal domains of group I metabotropic glutamate receptors: structural motifs affecting ligand selectivity” (J Med Chem, 1999)

Columns and labels:
[1] = target: Metabotropic glutamate receptor 5 (Homo sapiens, UniProt P41594); test: Compound was tested for it's […] activity against Ser152 and Thr175 (Metabotropic glutamate receptor 5); assay type: functional
[2] = target: Metabotropic glutamate receptor 1 (Homo sapiens, UniProt Q13255); test: Compound was tested for its […] activity against Ser165 and Thr188 (Metabotropic glutamate receptor 1) receptor.; assay type: functional
Sequence of Metabotropic glutamate receptor 1 (Q13255 whole entry): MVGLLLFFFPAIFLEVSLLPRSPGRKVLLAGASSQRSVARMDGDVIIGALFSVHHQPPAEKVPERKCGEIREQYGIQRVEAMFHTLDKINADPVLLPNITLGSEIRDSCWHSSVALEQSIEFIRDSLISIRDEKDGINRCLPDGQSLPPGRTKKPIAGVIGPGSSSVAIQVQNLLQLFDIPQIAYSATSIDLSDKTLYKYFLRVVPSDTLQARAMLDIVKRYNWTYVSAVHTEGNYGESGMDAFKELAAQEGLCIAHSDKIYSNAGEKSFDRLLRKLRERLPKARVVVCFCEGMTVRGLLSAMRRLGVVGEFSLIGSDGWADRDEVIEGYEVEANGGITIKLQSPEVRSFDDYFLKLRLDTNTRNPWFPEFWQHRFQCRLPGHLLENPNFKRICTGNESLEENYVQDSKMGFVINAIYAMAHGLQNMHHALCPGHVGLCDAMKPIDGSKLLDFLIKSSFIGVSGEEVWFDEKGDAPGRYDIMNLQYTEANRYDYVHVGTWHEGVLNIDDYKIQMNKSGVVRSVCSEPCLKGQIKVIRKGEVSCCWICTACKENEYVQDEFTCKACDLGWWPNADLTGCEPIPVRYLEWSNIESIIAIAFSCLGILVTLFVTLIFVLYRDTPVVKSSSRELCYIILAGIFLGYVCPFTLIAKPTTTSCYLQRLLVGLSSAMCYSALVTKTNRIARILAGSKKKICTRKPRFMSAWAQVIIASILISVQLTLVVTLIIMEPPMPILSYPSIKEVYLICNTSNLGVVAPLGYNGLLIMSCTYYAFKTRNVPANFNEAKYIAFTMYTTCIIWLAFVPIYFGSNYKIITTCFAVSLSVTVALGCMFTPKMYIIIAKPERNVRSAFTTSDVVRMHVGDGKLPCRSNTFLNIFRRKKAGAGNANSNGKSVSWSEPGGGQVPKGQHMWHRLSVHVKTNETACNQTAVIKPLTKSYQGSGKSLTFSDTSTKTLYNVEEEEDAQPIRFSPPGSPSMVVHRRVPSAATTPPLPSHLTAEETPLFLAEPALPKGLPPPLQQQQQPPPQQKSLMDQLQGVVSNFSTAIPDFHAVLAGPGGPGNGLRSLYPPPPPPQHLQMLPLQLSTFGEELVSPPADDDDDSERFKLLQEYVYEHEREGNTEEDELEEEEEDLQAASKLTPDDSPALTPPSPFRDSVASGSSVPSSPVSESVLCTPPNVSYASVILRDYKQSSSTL

Sequence of Metabotropic glutamate receptor 5 (P41594 whole entry): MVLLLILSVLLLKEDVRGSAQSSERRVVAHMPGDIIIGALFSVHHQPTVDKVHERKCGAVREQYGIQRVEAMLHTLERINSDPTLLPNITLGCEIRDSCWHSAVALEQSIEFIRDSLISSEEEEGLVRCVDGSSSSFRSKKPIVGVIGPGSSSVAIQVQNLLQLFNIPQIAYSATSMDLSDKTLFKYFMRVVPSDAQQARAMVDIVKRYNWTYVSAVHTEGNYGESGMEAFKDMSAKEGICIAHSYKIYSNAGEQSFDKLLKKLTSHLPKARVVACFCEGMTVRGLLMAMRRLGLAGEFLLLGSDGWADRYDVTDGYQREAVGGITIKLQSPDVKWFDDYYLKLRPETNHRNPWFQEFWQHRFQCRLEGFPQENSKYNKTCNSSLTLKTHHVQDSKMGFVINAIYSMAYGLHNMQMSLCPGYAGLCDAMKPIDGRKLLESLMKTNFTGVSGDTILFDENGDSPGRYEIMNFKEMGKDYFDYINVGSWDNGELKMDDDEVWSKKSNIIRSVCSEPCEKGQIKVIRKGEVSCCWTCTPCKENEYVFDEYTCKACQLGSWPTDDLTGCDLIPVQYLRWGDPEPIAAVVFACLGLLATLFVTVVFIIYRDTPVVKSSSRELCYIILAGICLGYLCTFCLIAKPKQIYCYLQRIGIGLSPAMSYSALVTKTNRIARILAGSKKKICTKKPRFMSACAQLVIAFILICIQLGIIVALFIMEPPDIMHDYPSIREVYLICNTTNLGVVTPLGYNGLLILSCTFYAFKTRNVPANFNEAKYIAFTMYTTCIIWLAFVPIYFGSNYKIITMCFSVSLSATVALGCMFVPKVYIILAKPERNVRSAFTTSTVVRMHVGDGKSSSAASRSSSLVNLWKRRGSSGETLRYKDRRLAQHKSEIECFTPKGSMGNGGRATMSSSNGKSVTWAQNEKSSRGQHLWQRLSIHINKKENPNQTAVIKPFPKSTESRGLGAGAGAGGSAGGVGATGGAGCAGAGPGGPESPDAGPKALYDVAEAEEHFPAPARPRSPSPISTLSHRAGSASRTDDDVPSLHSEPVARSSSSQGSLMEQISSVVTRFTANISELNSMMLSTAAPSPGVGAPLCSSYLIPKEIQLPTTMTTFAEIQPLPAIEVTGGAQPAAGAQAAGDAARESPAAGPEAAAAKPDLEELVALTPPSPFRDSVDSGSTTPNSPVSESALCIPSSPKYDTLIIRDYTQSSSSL

Row | SMILES | EC50 [1] | IC50 [1] | IC50 [2] | EC50 [2]
1 | NC(C(=O)O)C12CC(C(=O)O)(C1)C2 (stereo not given) | 103 µM | – | – | –
2 | NC(C(=O)O)c1cc(O)ccc1Cl (stereo not given) | 750 µM | – | – | –
3 | N[C@]1(C(=O)O)CCc2cc(C(=O)O)ccc21 | – | > 1000 µM | 214 µM | –
4 | N[C@H](C(=O)O)c1cc(O)cc(O)c1 | – | – | – | 6.6 µM
5 | Cc1ccc(O)c(/N=N/c2ccccc2)n1 | – | 0.37 µM | > 100 µM | –
6 | Cc1cccc(/C=C/c2ccccc2)n1 | – | 0.29 µM | > 100 µM | –
7 | Cc1cc(C(=O)O)ccc1[C@H](N)C(=O)O | – | > 100 µM | – | –
